Laboratory results published in patent publication US20220227765A1, “PYRIDO-INDOLE ANALOGUES AS GPX4 INHIBITORS” (Ferro Therapeutics, Inc., priority 2019, published 2022).
Converted amounts (≈) assume the structure as drawn. Like-named read-outs stand apart in the source and are kept apart here. Blank lines part the entries; values can stand above or below the compound they belong to.

What was measured:
A431 = experiment: Cell proliferation (Alamar Blue) assay, A431; type: cell-based, human; settings: Homo sapiens, A-431, 24 h
Summary of the method: (§1)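 Alamar Blue fluorescence (540 nm excitation, 590 nm emission, 1.5 h reagent incubation) measured viability after 24 h compound exposure at 37° C./5% CO2. Compounds spanned 10-0.0005 μM in 3-fold steps with 1% final DMSO, on cells pre-seeded 16-24 h at 5000/well. IC50 values were derived by variable-slope dose-response fitting.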

[1] = CD-1 Mouse Whole Blood Stability Assay; type: in vitro ADME; settings: incubation at 37° C.
SJSA-1 = experiment: Cell proliferation (Alamar Blue) assay, SJSA-1; type: cell-based, human
Summary of the method: as §1

[2] = Mouse plasma protein % unbound (ultracentrifuge method); type: in vitro ADME; settings: for Mouse Plasma Protein % Unbound (Ultracentrifuge method, 4 h at 37° C.): Table B-6
786-O = experiment: Cell proliferation (Alamar Blue) assay, 786-O; type: cell-based, human
Summary of the method: as §1

in vitro = settings: CD-1, mouse, plasma
[3] = CD-1, mouse, plasma, 2 μM
[4] = Equilibrium solubility at different pHs and with SBECD; type: physicochemical; settings: thermodynamic from solid
[5] = Kinetic solubility (PBS, pH 7.4); type: physicochemical; settings: aqueous buffer, kinetic from dmso stock
[6] = Human hepatocyte metabolic stability; type: in vitro ADME
[7] = Rat hepatocyte metabolic stability; type: in vitro ADME
Human blood stability = type: in vitro ADME
[8] = Homo sapiens, SJSA-1, 24 h, Table B-3, head prints SJSB-1, 24 h, read-out: IC50 (μM) SJSB-1
[9] = Homo sapiens, 786-0, 24 h, Table B-3, 786-O cells
[10] = aqueous buffer, pH 3.0 PBS buffer, read-out: Eq. solubility pH 3.0 PBS buffer
[11] = aqueous with cosolvent or surfactant or cyclodextrin, 20% SBECD (sulfobutyl ether cyclodextrin), read-out: Eq. solubility 20% SBECD

IC50 (A431; Table C-3, A431 cells): 2.95 µM
CD-1 Mouse Whole Blood Stability % Remaining ([1]; Table C-4, 0 min): 100.0%
CD-1 Mouse Whole Blood Stability % Remaining ([1]; Table C-4, 30 min): 74.4%
CD-1 Mouse Whole Blood Stability % Remaining ([1]; Table C-4, 60 min): 61.0%
IC50 (SJSA-1; Table C-3, SJSA-1 cells, 24 h, read-out: IC50 (μM) SJSA-1): 0.332 µM
fraction unbound at 4 h ([2]; mouse, plasma, Table C-4, 4 h at 37° C.): 0.105
IC50 (786-O; Table C-3, 786-O cells, 24 h): 0.437 µM
Structure (SMILES): C[C@H]1Cc2c([nH]c3ccccc23)[C@](C)(c2ccc(F)cc2)N1C(=O)CCl [Compound C-38]

IC50 (A431; Table B-3, A431 cells): > 10 µM
fraction unbound at 2 μM (in vitro): 0.083
% Bound [3]: 91.7%
% Remaining (t = 4 hr at 37 C.) [3]: 22.0%
IC50 (SJSA-1; [8]): 0.051 µM
IC50 (786-O; [9]): 0.029 µM
Structure (SMILES): C#CC(=O)N1[C@@H](CCCC)Cc2c([nH]c3c(F)cc(F)cc23)[C@@H]1c1ccc(N2CCN(C)CC2)c(F)c1 [Compound B-53]

solubility [4, 10]: < 1 µg/mL
solubility [4, 11]: > 1010 µg/mL
IC50 (A431; Table B-3, A431 cells): 7.6 µM
solubility kinetic ([5]; Table B-7): 11 µM (≈ 4.36 µg/mL)
CD-1 Mouse Whole Blood Stability % Remaining ([1]; Table B-6, 0 min): 100.0%
CD-1 Mouse Whole Blood Stability % Remaining ([1]; Table B-6, 30 min): 9.4%
CD-1 Mouse Whole Blood Stability % Remaining ([1]; Table B-6, 60 min): 1.1%
IC50 (SJSA-1; [8]): 0.074 µM
Mouse Plasma Protein % Unbound (Ultracentrifuge method, 4 h at 37° C.) [2]: Not stable
IC50 (786-O; [9]): 0.041 µM
Structure (SMILES): C#CC(=O)N1[C@@H](CCCC)Cc2c([nH]c3c(F)cc(F)cc23)[C@@H]1c1ccnn1C [Compound B-34]

IC50 (A431; Table B-3, A431 cells): > 10 µM
fraction unbound at 2 μM (in vitro): 0.097
% Bound [3]: 90.3%
% Remaining (t = 4 hr at 37 C.) [3]: 31.6%
IC50 (SJSA-1; [8]): 0.069 µM
IC50 (786-O; [9]): 0.046 µM
Structure (SMILES): C#CC(=O)N1[C@@H](CCCC)Cc2c([nH]c3c(F)cc(F)cc23)[C@@H]1c1ccc(N)cc1 [Compound B-54]

% Remaining (t = 4 hr at 37 C.) [3]: 101.2%
Structure (SMILES): CC(=O)CC(c1ccccc1)c1c(O)c2ccccc2oc1=O (stereo not shown) [Warfarin, reference compound]

solubility ([4]; aqueous buffer, pH 3.0, read-out: Eq. solubility pH 3.0): 15 µg/mL (≈ 38.1 µM)
solubility [4, 10]: 4 µg/mL (≈ 10.2 µM)
solubility [4, 11]: 47 µg/mL (≈ 119 µM)
human hepatocytes extr. Ratio [6]: 0.93
human hepatocytes % met @ 180 min ([6]; 180 min): 97%
half-life ([6]; human hepatocytes, read-out: human hepatocytes T1/2): 28 min
hepatocyte CLint ([6]; human hepatocytes, read-out: human hepatocytes h Clintr (μL/min/10^6 cells)): 99 µL/min/1e6 cells
IC50 (A431; Table B-3, A431 cells): 6.6 µM
solubility kinetic ([5]; Table B-4): 3 µM (≈ 1.18 µg/mL)
rat hepatocytes extr. Ratio [7]: 0.94
rat hepatocytes % met @ 180 min ([7]; 180 min): 100%
half-life ([7]; rat hepatocytes, read-out: rat hepatocytes T1/2): 16 min
hepatocyte CLint ([7]; rat hepatocytes, read-out: rat hepatocytes h Clintr (μL/min/10^6 cells)): 174 µL/min/1e6 cells
CD-1 Mouse Whole Blood Stability % Remaining ([1]; Table B-6, 0 min): 100.0%
CD-1 Mouse Whole Blood Stability % Remaining ([1]; Table B-6, 30 min): 2.1%
CD-1 Mouse Whole Blood Stability % Remaining ([1]; Table B-6, 60 min): 0.2%
human blood stability % remaining (Human blood stability; 15 min): 9.7%_15
human blood stability % remaining (Human blood stability; 30 min): 0%_30
human blood stability % remaining (Human blood stability; 45 min): 0%_45
human blood stability % remaining (Human blood stability; 60 min): 0%_60
human blood stability % remaining (Human blood stability; 120 min): 0%_120
IC50 (SJSA-1; [8]): 0.011 µM
Mouse Plasma Protein % Unbound (Ultracentrifuge method, 4 h at 37° C.) [2]: Not stable
IC50 (786-O; [9]): 0.009 µM
Structure (SMILES): C#CC(=O)N1[C@@H](CCCC)Cc2c([nH]c3c(F)cc(F)cc23)[C@@H]1c1ccccn1 [Compound B-31]

IC50 (A431; Table B-3, A431 cells): > 10 µM
CD-1 Mouse Whole Blood Stability % Remaining ([1]; Table B-6, 0 min): 100.0%
CD-1 Mouse Whole Blood Stability % Remaining ([1]; Table B-6, 30 min): 4.0%
CD-1 Mouse Whole Blood Stability % Remaining ([1]; Table B-6, 60 min): 0.5%
IC50 (SJSA-1; [8]): 0.431 µM
Mouse Plasma Protein % Unbound (Ultracentrifuge method, 4 h at 37° C.) [2]: Not stable
IC50 (786-O; [9]): 0.507 µM
Structure (SMILES): C#CC(=O)N1[C@@H](CCCC)Cc2c([nH]c3c(F)cc(F)cc23)[C@@H]1c1cncs1 [Compound B-23]
